Where two headings read alike, the source gives them in different places. No end group written: not given here.
How the values were obtained:
[1] = Urinary excretion of unchanged ALM201 (LC-MS/MS); format: in vivo; details: human, sc, patients with positive urine concentrations, urine collected over 6 h after dosing, day 1 cycle 1, read-out: Amount excreted in the urine, % of the administered dose, mean (±SD)
advanced solid tumours = assay: Tumour response by RECIST 1.1; format: in vivo, human
Description: Tumour assessment by imaging (CT scan or MRI scan as appropriate for tumour type) was assessed in all patients at initial screening and after every two cycles of treatment (i.e., every 6 weeks) during cycles 1–8 (i.e., first 24 weeks), and then after every four cycles of treatment (i.e., every 12 weeks) from cycle nine onwards. Scans were reported according to RECIST version 1.1.

[2] = system: HMEC-1, a human vascular endothelial cell-line; details: protocol Table 3; ref Investigator brochure (IB); read-out: Wound scrape IC50; cited from earlier work
Source text: page 37: Almac Discovery Confidential There are five main histological subtypes of ovarian cancer differing in tissue of origin, stage of presentation, sensitivity to chemotherapy, survival and driver genetic mutations. The most aggressive of these subtypes are the high grade serous tumours. […] ALM201 also had no effect on cytok ...

HMEC-1 cells = details: same concentration range, range of growth factors, ref Investigator brochure (IB); cited from earlier work
Source text: (§1) ALM201 also had no effect on cytok ...

HMEC-1 = details: protocol Table 3; ref Investigator brochure (IB); read-out: Tube formation IC50; cited from earlier work
Source text: as §1

cell cycle = details: protocol Table 2 (IC50 (nM)); ref Investigator brochure (IB); cited from earlier work
Source text: as §1

cell viability = details: protocol Table 2; ref Investigator brochure (IB); cited from earlier work
Source text: as §1

[3] = system: invasion stimulated by VEGF, EGF, FGF, PFGF and FCS; details: 10^-9 M (exponent printed displaced), ref Investigator brochure (IB); cited from earlier work
Source text: as §1

proliferation = details: protocol Table 3; ref Investigator brochure (IB); cited from earlier work
Source text: as §1

rat aorta = details: ex vivo rat aorta in Matrigel, 7-day period, depending on the parameter assessed; ref Investigator brochure (IB); read-out: IC50 for tubule out-growth parameters; cited from earlier work
Source text: as §1

[4] = system: DU145 and HT29 xenografts; details: 3.0 mg/kg/day and 0.3 mg/kg/day, 14-day period, BALB-c SCID mouse, ref Investigator brochure (IB); cited from earlier work
Description: In vivo studies using a BALB-c SCID mouse xenograft model with DU145 and HT29 cell-lines, where the small tumours can be directly examined in situ using confocal and standard microscopy have shown that administration of ALM201 inhibits a range of markers of new blood vessel formation. Tumours were typically 1-2 mm at baseline and assessments taken over a 14-day period. Dose levels of 3.0 mg/kg/d ...

[5] = Mouse, 3mg/kg SC, male animals; ref Investigator brochure (IB); cited from earlier work
[6] = Rat, 5mg/kg SC, male animals; ref Investigator brochure (IB); cited from earlier work
[7] = Dog, 5mg/kg SC, male animals; ref Investigator brochure (IB); cited from earlier work
[8] = ref Investigator brochure (IB), cited from earlier work
Description: page 40: Almac Discovery Confidential (i) a […] dose ranging study in rats, dose range 5-50 mg/kg/day; (ii) a non-GLP dose ranging study in dogs, dose range 15-50 mg/kg/day; (iii) a GLP 28-day study in rats, dose range 5-50 mg/kg/day; (iv) a GLP 28-day study in dogs, dose range 5-50 mg/kg/day; (v) a non-GLP wound healing study in rats, dose range 5-50 mg/kg/day. In the rat dose range finding study, administration of doses of up to 50 mg/kg/day for 14 days were assessed. ALM201 was well tolerated at all doses and the No Observable Adverse Effect Level (NOAEL) was considered to be 50 mg/kg/d ...

xenograft = details: rat xenograft model, 3 mg/kg; ref Investigator brochure (IB); cited from earlier work
Description: page 41: Almac Discovery Confidential 1.5 Rationale for Dose Selection Based on GLP, 28-day, repeat dose toxicology studies in the dog and rat, the NOAEL for ALM201 was not defined at the maximum dose evaluated of 50 mg/kgxiv. Therefore, based on standard allometric scaling based on the FDA guidelines (FDA, 2005 ), it is predicted that a human equivalent dose (HED) range of 8–28 mg/kg could be given without any drug-related adverse effects. Assuming a starting dose calculation based on a 10-fold safety margin in the most conservative model (the rat); the starting dose would be 0.8 mg/kg. Due t ...

[9] = system: angiogenesis and cell migration and invasion; details: cited from earlier work
Source text: Early investigations into the mechanism of action for ALM201 reported that the peptide is internalised into CD44-expressing cells and targets microtubules inhibiting migration and invasion in cancer and endothelial cells, similar to vascular disrupting agents. However, it was unclear if this was the principal mechanism of inhibiting angiogenesis or if other factors, such as inhibiting endothelial cell migration and inva ...

heparinised human blood = details: alone or with Staphylococcus Enterotoxin B, 10^-8 to 10^-6 M, ref Investigator brochure (IB); cited from earlier work

In the case of IRQQPRDPPTETLELEVSPDPAS [ALM201], the dose excreted [1] is reported as 0.074%, the “Stable disease / disease control rate” value (advanced solid tumours; 7/20 patients, stable disease for up to four cycles) is reported as 35% and the Disease progression (advanced solid tumours; 12 of 20 patients) is reported as 60%. The “Partial or complete responses” value (advanced solid tumours; all patients) was “No partial or complete responses”, the “Patients with SD until the end of cycle 4” value (advanced solid tumours; in vivo) was “Three” and the IC50 [2] was 0.009 nM. For the same sequence, the “Effect on cell proliferation or cell cycle” value (HMEC-1 cells) was “no effect”, the IC50 (HMEC-1) was 0.082 nM and the Cell cycle arrest (cell cycle) was “No effect”. The “Cell viability IC50” value (cell viability) was “No effect”, the Invasion [3] was “inhibit invasion” and the “Proliferation IC50” value (proliferation) was “No effect”. For the same sequence, the IC50 (rat aorta) was 0.005 to 0.02 nM, the “Average vessel diameter, average segment length and vessel branch number” value [4] was “significant decreases” and the “AUC24 (figure is for AUC0-∞)” value [5] was 2166 ng·h/mL. The Cmax [5] was 3477 ng/mL, the Half-life [5] was 12 min and the Tmax [5] was 10 min. For the same sequence, the AUC24 [6] was 4320 ng·h/mL, the Cmax [6] was 3400 ng/mL and the Half-life [6] was 36 min. The Tmax [6] was 30 min, the AUC24 [7] was 7300 ng·h/mL and the Cmax [7] was 2030 ng/mL. The Half-life [7] was 144 min, the Tmax [7] was 60 min and the NOAEL ([8]; beagle dog dose range finding, 15 and 50 mg/kg/day for 14 days) was 50 mg/kg/day. For the same sequence, the NOAEL ([8]; dog GLP 28 days plus recovery, 5, 15 and 50 mg/kg/day) was 50 mg/kg/day, the NOAEL ([8]; rat GLP 28 days plus recovery, 5, 15 and 50 mg/kg/day) was 50 mg/kg/day and the NOAEL ([8]; rat dose range finding study, up to 50 mg/kg/day for 14 days) was 50 mg/kg/day. For the same sequence, the “Effect on wound closure or tensile strength” value ([8]; rat, 5 and 50 mg/kg/day for up to 18 days, versus vehicle controls) was “No effect”, the Anti-tumour activity (xenograft) was “significant anti-tumour” and the “Activity in standard in vitro and ex vivo assays of angiogenesis, cell migration and invasion” value [9] was “low picomolar activity”. For the same sequence, the “Effect on cytokine release and T-cell proliferation” value (heparinised human blood) was “no effect”.

From article PMC9276671, “A first-in-human Phase I dose-escalation trial of the novel therapeutic peptide, ALM201, demonstrates a favourable safety profile in unselected patients with ovarian cancer and other advanced solid tumours” (British Journal of Cancer, 2022)
